In patent publication US20240190821A1, “SULFONAMIDE SUBSTITUTED N-(1H-INDOL-7-YL)BENZENESULFONAMIDES AND USES THEREOF” (Triana Biomedicines, Inc., priority 2021, published 2024):

The compounds below were run against T1, DCAF15-RBM39 ternary complex (Homo sapiens, UniProt Q14498+Q66K64) (assay: Compound-induced DCAF15-RBM39 ternary complex formation, AlphaLISA). Details: not given.
T1 construct: (RRM2)
Type: biochemical
Experimental: Compound-induced DCAF15-RBM39 ternary complex formation was monitored using AlphaLISA® assays (Perkin Elmer, Waltham, MA). […] 9.8 ul of this protein mixture was then mixed with the compounds in the assay plate and incubated for one hour at room temperature. Reaction mixtures with no compounds added were included as negative controls, while a His-tagged and biotinylated GST protein was included to track general assay performance. […] The beads were then added to the assay plate sequentially with incubation at room temperature for 1-2 hours after each addition.

T1 sequence (Q66K64 whole entry): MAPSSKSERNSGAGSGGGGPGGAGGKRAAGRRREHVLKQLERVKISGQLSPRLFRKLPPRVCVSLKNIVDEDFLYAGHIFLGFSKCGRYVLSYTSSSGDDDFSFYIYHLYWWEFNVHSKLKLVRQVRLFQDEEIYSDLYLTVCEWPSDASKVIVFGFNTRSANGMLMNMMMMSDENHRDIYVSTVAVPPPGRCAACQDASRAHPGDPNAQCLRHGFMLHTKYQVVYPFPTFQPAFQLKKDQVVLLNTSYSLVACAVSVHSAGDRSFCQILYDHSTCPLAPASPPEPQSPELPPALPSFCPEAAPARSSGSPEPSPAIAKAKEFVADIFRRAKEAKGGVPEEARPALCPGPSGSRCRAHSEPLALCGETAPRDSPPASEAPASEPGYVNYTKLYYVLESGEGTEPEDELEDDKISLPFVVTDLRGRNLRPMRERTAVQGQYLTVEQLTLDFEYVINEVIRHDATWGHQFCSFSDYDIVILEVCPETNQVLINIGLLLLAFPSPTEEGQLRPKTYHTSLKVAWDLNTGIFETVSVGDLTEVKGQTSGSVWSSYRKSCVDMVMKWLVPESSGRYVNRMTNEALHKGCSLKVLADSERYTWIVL
T1 sequence (Q14498 250-328 limits assumed): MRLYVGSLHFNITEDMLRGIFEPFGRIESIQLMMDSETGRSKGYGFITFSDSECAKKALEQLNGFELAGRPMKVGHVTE
T1 sequence (Q16531 whole entry partner): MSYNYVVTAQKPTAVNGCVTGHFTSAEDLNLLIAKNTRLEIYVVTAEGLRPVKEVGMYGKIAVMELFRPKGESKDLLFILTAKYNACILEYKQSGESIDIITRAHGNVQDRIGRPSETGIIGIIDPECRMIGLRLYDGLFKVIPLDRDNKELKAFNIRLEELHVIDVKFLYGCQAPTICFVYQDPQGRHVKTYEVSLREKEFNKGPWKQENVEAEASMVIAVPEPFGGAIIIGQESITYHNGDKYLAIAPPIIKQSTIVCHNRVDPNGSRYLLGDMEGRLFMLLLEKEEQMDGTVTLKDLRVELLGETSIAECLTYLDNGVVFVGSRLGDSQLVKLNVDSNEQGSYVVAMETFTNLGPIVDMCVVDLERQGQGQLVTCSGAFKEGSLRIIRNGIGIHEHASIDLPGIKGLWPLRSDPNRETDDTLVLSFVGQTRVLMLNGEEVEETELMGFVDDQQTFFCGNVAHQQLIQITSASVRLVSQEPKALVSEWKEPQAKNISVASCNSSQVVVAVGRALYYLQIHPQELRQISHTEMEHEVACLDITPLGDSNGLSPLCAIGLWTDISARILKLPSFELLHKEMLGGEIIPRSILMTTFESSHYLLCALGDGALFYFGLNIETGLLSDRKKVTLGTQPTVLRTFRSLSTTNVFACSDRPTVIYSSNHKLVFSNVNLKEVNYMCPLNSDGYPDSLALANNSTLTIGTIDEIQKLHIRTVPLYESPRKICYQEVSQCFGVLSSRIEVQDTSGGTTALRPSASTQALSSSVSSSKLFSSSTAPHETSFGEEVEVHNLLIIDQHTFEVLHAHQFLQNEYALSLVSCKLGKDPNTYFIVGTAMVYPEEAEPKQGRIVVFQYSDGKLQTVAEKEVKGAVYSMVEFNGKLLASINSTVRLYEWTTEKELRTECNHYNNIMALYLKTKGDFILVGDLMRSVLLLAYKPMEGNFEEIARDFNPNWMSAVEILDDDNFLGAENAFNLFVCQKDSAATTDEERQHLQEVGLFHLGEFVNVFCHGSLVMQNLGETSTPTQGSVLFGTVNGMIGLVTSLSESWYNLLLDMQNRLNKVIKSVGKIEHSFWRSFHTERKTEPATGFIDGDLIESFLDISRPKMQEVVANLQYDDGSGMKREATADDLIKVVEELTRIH

SMILES | EC50 [nM]
N#Cc1ccc(CCCN2CCN(S(=O)(=O)c3ccc(S(=O)(=O)Nc4ccc(Cl)c5c(Cl)c[nH]c45)cc3)CC2)cc1 [Compound 50, 4-((4-(3-(4-cyanophenyl)propyl)piperazin-1-yl)sulfonyl)-N-(3,4-dichloro-1H-indol-7-yl)benzenesulfonamide] | < 1000

Same assay, conditions: AlphaLISA, His-tagged DCAF15 complex and biotin-carrying RBM39; read-out: Ternary-RBM39 (RRM2) EC50

SMILES | EC50 [nM]
O=S(=O)(Nc1ccc(Cl)c2c(Cl)c[nH]c12)c1ccc(S(=O)(=O)N2CCCCC2)cc1 [Compound 37, N-(3,4-dichloro-1H-indol-7-yl)-4-(piperidin-1-ylsulfonyl)benzenesulfonamide] | < 1000
O=S(=O)(Nc1ccc(Cl)c2c(Cl)c[nH]c12)c1ccc(S(=O)(=O)N2CCNCC2)c(F)c1 [Compound 45, N-(3,4-dichloro-1H-indol-7-yl)-3-fluoro-4-(piperazin-1-ylsulfonyl)benzenesulfonamide] | < 1000
CCS(=O)(=O)CCNS(=O)(=O)c1ccc(S(=O)(=O)Nc2ccc(Cl)c3c(Cl)c[nH]c23)cc1 [Compound 3, N^1-(3,4-dichloro-1H-indol-7-yl)-N^4-(2-(ethylsulfonyl)ethyl) benzene-1,4-disulfonamide] | < 1000
CC(C)(C)OC(=O)NC1(CNS(=O)(=O)c2ccc(S(=O)(=O)Nc3ccc(Cl)c4c(Cl)c[nH]c34)cc2)CC1 [Compound 9, tert-butyl (1-(((4-(N-(3,4-dichloro-1H-indol-7-yl)sulfamoyl)phenyl)sulfonamido)methyl)cyclopropyl) carbamate] | < 20000
Cn1cc(-c2ccc(S(=O)(=O)Nc3ccc(Cl)c4c(Cl)c[nH]c34)cc2)cn1 [Compound 61, N-(3,4-dichloro-1H-indol-7-yl)-4-(1-methyl-1H-pyrazol-4-yl)benzenesulfonamide] | < 5000
O=S(=O)(Nc1ccc(Cl)c2c(Cl)c[nH]c12)c1ccc(Br)cc1 [Compound 75, 4-bromo-N-(3,4-dichloro-1H-indol-7-yl)benzenesulfonamide] | < 5000
O=S(=O)(NCCOCC1CC1)c1ccc(S(=O)(=O)Nc2ccc(Cl)c3c(Cl)c[nH]c23)cc1 [Compound 6, N^1-(2-(cyclopropylmethoxy)ethyl)-N^4-(3,4-dichloro-1H-indol-7-yl)benzene-1,4-disulfonamide] | < 5000
O=S(=O)(Nc1ccc(Cl)c2c(Cl)c[nH]c12)c1ccc(S(=O)(=O)NC2CCc3ccccc32)cc1 (centres unmarked) [Compound 34, N^1-(3,4-dichloro-1H-indol-7-yl)-N^4-(2,3-dihydro-1H-inden-1-yl)benzene-1,4-disulfonamide] | < 20000
CCOC(=O)N1CCN(S(=O)(=O)c2ccc(S(=O)(=O)Nc3ccc(Cl)c4c(Cl)c[nH]c34)cc2)CC1 [Compound 49, ethyl 4-((4-(N-(3,4-dichloro-1H-indol-7-yl)sulfamoyl)phenyl)sulfonyl)piperazine-1-carboxylate] | < 5000
Cc1ccc(NS(=O)(=O)c2ccc(S(=O)(=O)N(C)C3CNC3)cc2)c2[nH]cc(C#N)c12 [Compound 79, N^1-(azetidin-3-yl)-N^4-(3-cyano-4-methyl-1H-indol-7-yl)-N^1-methylbenzene-1,4-disulfonamide] | < 1000
O=S(=O)(Nc1ccc(Cl)c2c(Cl)c[nH]c12)c1cccc(S(=O)(=O)N2CCNCC2)c1 [Compound 41, N-(3,4-dichloro-1H-indol-7-yl)-3-(piperazin-1-ylsulfonyl)benzenesulfonamide] | < 1000
CC1CNCCN1S(=O)(=O)c1ccc(S(=O)(=O)Nc2ccc(Cl)c3c(Cl)c[nH]c23)cc1 (centres unmarked) [Compound 46, N-(3,4-dichloro-1H-indol-7-yl)-4-((2-methylpiperazin-1-yl)sulfonyl)benzene sulfonamide] | < 1000
O=S(=O)(Nc1ccc(Cl)c2c(Cl)c[nH]c12)c1ccc(S(=O)(=O)NC2CCNCC2)cc1 [Compound 29, N^1-(3,4-dichloro-1H-indol-7-yl)-N^4-(piperidin-4-yl)benzene-1,4-disulfonamide] | < 1000
CCN(CC)C(=O)c1ccc(CNS(=O)(=O)c2ccc(S(=O)(=O)Nc3ccc(Cl)c4c(Cl)c[nH]c34)cc2)cc1 [Compound 12, 4-(((4-(N-(3,4-dichloro-1H-indol-7-yl)sulfamoyl)phenyl)sulfonamido)methyl)-N,N-diethylbenzamid] | < 20000
CN1CCN(S(=O)(=O)c2ccc(S(=O)(=O)Nc3ccc(Cl)c4c(Cl)c[nH]c34)cc2)CC1 [Compound 48, N-(3,4-dichloro-1H-indol-7-yl)-4-((4-methylpiperazin-1-yl)sulfonyl)benzenesulfonamide] | < 1000
CCCN(c1ccc(S(=O)(=O)Nc2ccc(Cl)c3c(Cl)c[nH]c23)cc1)S(=O)(=O)C1CCN(C)CC1 [Compound 62, N-(4-(N-(3,4-dichloro-1H-indol-7-yl)sulfamoyl)phenyl)-1-methyl-N-propylpiperidine-4-sulfonamide] | < 1000
O=S1(=O)CCC(OCCNS(=O)(=O)c2ccc(S(=O)(=O)Nc3ccc(Cl)c4c(Cl)c[nH]c34)cc2)CC1 [Compound 4, N^1-(3,4-dichloro-1H-indol-7-yl)-N4_ (2-((1,1-dioxidotetrahydro-2H-thiopyran-4-yl)oxy)ethyl) benzene-1,4-disulfonamide] | < 1000
Cc1ccc(NS(=O)(=O)c2ccc(S(=O)(=O)N3CCCC(N)C3)cc2)c2[nH]cc(C#N)c12 (centres unmarked) [Compound 82, 4-((3-aminopiperidin-1-yl)sulfonyl)-N-(3-cyano-4-methyl-1H-indol-7-yl) benzenesulfonamide] | < 1000
O=S(=O)(Nc1ccc(Cl)c2c(Cl)c[nH]c12)c1ccc(NS(=O)(=O)C2CCNCC2)cc1 [Compound 65, N-(4-(N-(3,4-dichloro-1H-indol-7-yl)sulfamoyl)phenyl)piperidine-4-sulfonamide] | < 5000
O=S(=O)(NCCc1ccccn1)c1ccc(S(=O)(=O)Nc2ccc(Cl)c3c(Cl)c[nH]c23)cc1 [Compound 26, N^1-(3,4-dichloro-1H-indol-7-yl)-N^4-(2-(pyridin-2-yl)ethyl)benzene-1,4-disulfonamide] | < 5000

Further lines, results first:

EC50 [nM] | SMILES
< 1000 | Cc1ccc(NS(=O)(=O)c2ccc(S(=O)(=O)N3CC4(CNC4)C3)cc2)c2[nH]cc(C#N)c12 [Compound 93, 4-((2,6-diazaspiro[3.3]heptan-2-yl)sulfonyl)-N-(3-cyano-4-methyl-1H-indol-7-yl)benzenesulfonamide]
< 5000 | O=C(NS(=O)(=O)c1ccc(Br)s1)c1ccc(Cl)cc1Cl [Tasisulam, tasisulam, reference compound]
< 1000 | COCCc1cn(-c2cccc(S(=O)(=O)Nc3ccc(C)c4c(C#N)c[nH]c34)c2)nn1 [Compound 97, N-(3-cyano-4-methyl-1H-indol-7-yl)-3-(4-(2-methoxyethyl)-1H-1,2,3-triazol-1-yl)benzenesulfonamide]
< 1000 | Cc1ccc(NS(=O)(=O)c2ccc(S(=O)(=O)N3CCNC(=O)C3)cc2)c2[nH]cc(C#N)c12 [Compound 89, N-(3-cyano-4-methyl-1H-indol-7-yl)-4-((3-oxopiperazin-1-yl)sulfonyl)benzenesulfonamide]
< 1000 | COCCN1CCN(S(=O)(=O)c2ccc(S(=O)(=O)Nc3ccc(C)c4c(C#N)c[nH]c34)cc2)CC1 [Compound 85, N-(3-cyano-4-methyl-1H-indol-7-yl)-4-((4-(2-methoxyethyl)piperazin-1-yl)sulfonyl)benzenesulfonamide]
< 1000 | Cc1ccc(NS(=O)(=O)c2ccc(S(=O)(=O)N3CCNCC3)cc2)c2[nH]cc(C#N)c12 [Compound 83, N-(3-cyano-4-methyl-1H-indol-7-yl)-4-(piperazin-1-ylsulfonyl)benzene sulfonamide]
< 1000 | CCC1CN(S(=O)(=O)c2ccc(S(=O)(=O)Nc3ccc(C)c4c(C#N)c[nH]c34)cc2)CCN1 (centres unmarked) [Compound 84, N-(3-cyano-4-methyl-1H-indol-7-yl)-4-((3-ethylpiperazin-1-yl)sulfonyl) benzenesulfonamide]
< 1000 | COc1cc(NS(=O)(=O)c2cccc(C#N)c2)c2[nH]cc(Cl)c2c1 [Compound 103, N-(3-chloro-5-methoxy-1H-indol-7-yl)-3-cyanobenzenesulfonamide]
< 5000 | O=S(=O)(Nc1cccc2cc[nH]c12)c1ccc(S(=O)(=O)N2CCNCC2)cc1 [compound 145]
< 5000 | C#CCOCCOCCOCC(=O)N(CCC)c1ccc(S(=O)(=O)Nc2ccc(Cl)c3c(Cl)c[nH]c23)cc1 [compound 132]
< 1000 | Cc1ccc(NS(=O)(=O)c2cc(F)cc(C#N)c2)c2[nH]cc(C#N)c12 [Compound 98, 3-cyano-N-(3-cyano-4-methyl-1H-indol-7-yl)-5-fluorobenzenesulfonamide]
< 1000 | Cc1ccc(NS(=O)(=O)c2ccc(S(=O)(=O)N3CCOCC3)cc2)c2[nH]cc(C#N)c12 [Compound 90, N-(3-cyano-4-methyl-1H-indol-7-yl)-4-(morpholinosulfonyl)benzene sulfonamide]

These compounds were tested against DCAF15 (Homo sapiens, UniProt Q66K64) (assay: Binary interaction between compounds and DCAF15, HTRF competition assay). Details: HTRF competition with Alexa Fluor 647 tracer, His-tagged DCAF15 complex; read-out: DCAF15 IC50.
Type: binding
Experimental: DCAF15 interactions with test compounds were monitored using HTRF competition assays (Cisbio, Bedford, MA). […] These two solutions were mixed and incubated for 15 min at room temperature. 9.8 ul of the tracer solution and 10 ul of the DCAF15/mAb Anti-6His-Eu cryptate Gold mixture were added sequentially to each well in the assay plate. Reaction mixtures with no DCAF15 added were included as […] controls. […] Binding was estimated based on ratiometric analysis and titration curves were generated in GraphPad Prism (7.00, GraphPad, La Jolla, CA).

DCAF15, sequence (Q66K64 whole entry): as the sequence (Q66K64 whole entry) above
DCAF15, sequence (Q16531 whole entry partner): as the sequence (Q16531 whole entry partner) above

SMILES | IC50 [nM]
O=S(=O)(Nc1ccc(Cl)c2c(Cl)c[nH]c12)c1ccc(S(=O)(=O)N2CCNCC2)c(F)c1 [Compound 45, N-(3,4-dichloro-1H-indol-7-yl)-3-fluoro-4-(piperazin-1-ylsulfonyl)benzenesulfonamide] | < 5000
CC(C)(C)OC(=O)NC1(CNS(=O)(=O)c2ccc(S(=O)(=O)Nc3ccc(Cl)c4c(Cl)c[nH]c34)cc2)CC1 [Compound 9, tert-butyl (1-(((4-(N-(3,4-dichloro-1H-indol-7-yl)sulfamoyl)phenyl)sulfonamido)methyl)cyclopropyl) carbamate] | < 20000
Cn1cc(-c2ccc(S(=O)(=O)Nc3ccc(Cl)c4c(Cl)c[nH]c34)cc2)cn1 [Compound 61, N-(3,4-dichloro-1H-indol-7-yl)-4-(1-methyl-1H-pyrazol-4-yl)benzenesulfonamide] | < 5000

Continued, values first:

IC50 [nM] | SMILES
< 5000 | CCCC1CN(S(=O)(=O)c2ccc(S(=O)(=O)Nc3ccc(Cl)c4c(Cl)c[nH]c34)cc2)CCN1 (centres unmarked) [compound 110]
< 100000 | O=S(=O)(Nc1ccc(C2CC2)c2c(Cl)c[nH]c12)c1ccc(S(=O)(=O)N2CCNCC2)cc1 [compound 147]
